According to article PMC10819570, “Design, Synthesis, and Biological Evaluation of 2-Substituted Aniline Pyrimidine Derivatives as Potent Dual Mer/c-Met Inhibitors” (Molecules, 2024):
“Also recorded” adds a separate entry of the source.

Columns and labels:
[1] = test system: HCT116 cells; test: TUNEL apoptosis assay; type: cell-based; conditions: HCT116, 48 h treatment
Protocol: The number of TUNEL-positive cells was counted from 5 non-overlap random fields per group; DAPI (blue). Data are representative of three independent experiments.
The One Step TUNEL Apoptosis Assay Kit (Meilunbio, Dalian, China) was used for studying apoptosis in a dose-dependent manner. HCT116 cells (1.5 × 10^4 cells/well) were cultured in TC-treated glass coverslip-containing plates. […] Next, adhered cells were fixed with 4% paraformaldehyde and permeabilized with 0.3% Triton-X-100. TUNEL staining was performed according to the manufacturer’s instructions. The nuclei of cells were counterstained with the DAPI reagent. Images were taken using an Olympus fluorescence microscope. The ED50 for 18c was calculated with the program GraphPad PRISM 9.5. The assay was performed in triplicate, and each experiment was repeated three times.

[2] = test system: HCT116 cells; test: Transwell migration assay; type: cell-based; conditions: 24 h
Protocol: Transwell migration assays were performed using Transwell® chamber inserts (Costar, Cambridge, MA, USA) with a porous polycarbonate membrane (8 μM pore size).
Transwell migration assays were performed using Transwell® chamber inserts (Costar, Cambridge, MA, USA) with a porous polycarbonate membrane ([…]). Briefly, 1.5 × 10^5 HCT116 cells were added in the top chamber with FBS-free culture media containing 0.2% BSA. A culture medium containing 15% FBS was added to the bottom chamber. […] After incubation for 24 h at 37 °C, the cells were fixed in methanol and stained with 0.1% crystal violet. The cells that had not migrated from the top surface of the filters were removed with cotton. Five randomly selected fields were captured by brightfield microscopy for each well. Migrated cells were quantitated by ImageJ (1.53c). Experiments were repeated at least three times in replicates.

[3] = Liver microsome stability assay; type: in vitro ADME; conditions: pH 7.4, human liver microsomes 0.2 mg/mL, test compound 1 μM, NADPH
Protocol: Stock solution (10 mM) of each of test compound was prepared in DMSO. The stock solution for each compound was then diluted into 200 μM with acetonitrile. Incubation mixtures were prepared in a total volume of 200 μL with final component concentrations as follows: 0.1 M PBS (pH 7.4), NADPH (2 mM), liver microsomes (0.2 mg/mL), and test compound (1 μM) or positive control. NAPDH was added after a 5 min preincubation of all other components at 37 °C, then pipette-mixed to achieve a homogenous suspension and immediately transferred 20 μL of the incubate as a 0 min sample to wells in a “Quenching” plate, followed by pipette-mixing. At 5, 15, 30, and 60 min, we pipette-mixed the incubate and serially transferred samples of 20 μL of the incubate per time point to wells in a separate “Quenching” plate, followed by pipette-mixing. In “Quenching” plates, 200 μL of acetonitrile was added with IS. The 96 wells were centrifuged at 4000 rpm for 10 min. Then 50 μL of supernatant was mixed with 50 μL of ddH2O and injected into the LC-MS/MS system for analysis.

[4] = test system: HCT116 cells; test: Antiproliferation assay (CCK-8), HCT116; type: cell-based
Protocol: (§1) Cell viability was measured by Cell Counting Kit-8 (Meilunbio, Dalian, China) according to the manufacturer’s instructions. Briefly, cancer cells were seeded into 96-well plates at a density of 2.5 × 10^3 cells per well. […] Subsequently, CCK-8 solution was added into each well and incubated for an additional 2 h. The absorbance at 450 nm was determined in each well using the BioTek Synergy HTX microplate reader. The assay was performed in triplicate, and each experiment was repeated three times.

[5] = test system: HepG2 cells; test: Antiproliferation assay (CCK-8), HepG2; type: cell-based
Protocol: as §1, with “The antiproliferative activities of the compounds against HepG2, MDA-MB-231, and HCT116 cell lines were tested by the standard CCK-8 method. Cell viability” for “Cell viability”

[6] = target: T1, hERG potassium currents (Homo sapiens, UniProt Q12809); test: hERG potassium currents assay (automated whole-cell patch clamp, CHO cells); type: cell-based; conditions: CHO cells stably expressing hERG, QPatch
T1 construct: expressed in transfected cells
Protocol: CHO cells stably expressing the transcript of hERG were investigated by the automated whole-cell patch clamp technique, using the QPatch system (Sophion, Ballerup, Denmark). The detailed procedures of the hERG potassium currents assay were described in our previous work. Each cell was received from six escalating concentrations. Each concentration was tested on at least three cells. The reference compound cisapride was applied at the end of the test compound addition.

[7] = target: T2, Mer kinase (Homo sapiens, UniProt Q12866); test: Mer kinase inhibitory activity assay (in vitro); type: biochemical; conditions: ATP 30 uM, enzyme 0.25 nM; means from three independent experiments
T2 sequence (Q12866 21-999): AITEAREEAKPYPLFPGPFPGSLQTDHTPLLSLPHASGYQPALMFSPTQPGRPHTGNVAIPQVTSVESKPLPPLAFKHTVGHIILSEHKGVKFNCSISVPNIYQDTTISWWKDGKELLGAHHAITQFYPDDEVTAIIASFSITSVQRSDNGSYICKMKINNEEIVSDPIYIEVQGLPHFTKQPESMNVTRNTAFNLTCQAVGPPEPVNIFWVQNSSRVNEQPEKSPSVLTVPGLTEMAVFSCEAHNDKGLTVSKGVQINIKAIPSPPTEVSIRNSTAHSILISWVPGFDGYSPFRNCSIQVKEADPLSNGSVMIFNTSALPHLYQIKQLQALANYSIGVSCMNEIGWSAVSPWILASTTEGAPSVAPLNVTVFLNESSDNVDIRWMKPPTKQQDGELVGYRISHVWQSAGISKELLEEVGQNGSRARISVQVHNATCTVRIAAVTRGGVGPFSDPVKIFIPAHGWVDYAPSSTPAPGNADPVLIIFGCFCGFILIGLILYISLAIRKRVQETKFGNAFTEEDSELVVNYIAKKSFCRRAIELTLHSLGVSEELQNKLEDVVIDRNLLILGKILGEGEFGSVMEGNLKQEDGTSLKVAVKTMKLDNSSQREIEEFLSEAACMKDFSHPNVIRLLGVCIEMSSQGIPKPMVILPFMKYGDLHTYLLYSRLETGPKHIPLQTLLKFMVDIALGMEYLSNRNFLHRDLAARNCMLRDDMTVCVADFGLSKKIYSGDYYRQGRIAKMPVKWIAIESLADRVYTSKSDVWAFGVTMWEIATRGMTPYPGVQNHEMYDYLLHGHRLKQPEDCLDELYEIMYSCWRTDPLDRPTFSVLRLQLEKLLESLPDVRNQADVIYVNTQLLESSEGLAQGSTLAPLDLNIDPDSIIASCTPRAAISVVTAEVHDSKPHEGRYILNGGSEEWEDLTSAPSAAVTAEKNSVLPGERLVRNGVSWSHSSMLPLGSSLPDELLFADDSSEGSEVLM
Protocol: The in vitro inhibition assays of all final compounds against Mer and c-Met kinase were performed by Shanghai Bioduro Biological Technology Co., Ltd. (Shanghai, China). We prepared 1× buffer: HEPES 50 mM, MgCl2 10 mM, EGTA 1 mM, NP-40 0.0001%, DTT 2 mM; compound dilution with DMSO. For test compounds, a 100 × final concentration solution was prepared. About 100 nL compounds were transferred to a 384-well plate by using the automated liquid handler. The final DMSO% in the assay is 1%. Enzyme stock solutions were diluted with 1× assay buffer to a concentration of 0.5 nM to make a 2× working solution. […] Substrate solutions were diluted with 1× assay buffer. About 5 μL mix or buffer was added manually to the assay plate (ATP final 30 uM and TK-Sub-Biotin final 2 uM) using a multichannel pipette, spun down at 1000 rpm, and centrifuged for 30 s. After incubating at 30 °C for 60 min, 10 μL of detection solution was added to each well of the assay, mixed briefly with a centrifuge, and equilibrated for another 60 min. The luminescence was recorded using Envision.

[8] = test system: MDA-MB-231 cells; test: Antiproliferation assay (CCK-8), MDA-MB-231; type: cell-based
Protocol: as §1, with “The antiproliferative activities of the compounds against HepG2, MDA-MB-231, and HCT116 cell lines were tested by the standard CCK-8 method. Cell viability” for “Cell viability”

[9] = ratio of IC50 values to cabozantinib

T1 sequence (Q12809 whole entry): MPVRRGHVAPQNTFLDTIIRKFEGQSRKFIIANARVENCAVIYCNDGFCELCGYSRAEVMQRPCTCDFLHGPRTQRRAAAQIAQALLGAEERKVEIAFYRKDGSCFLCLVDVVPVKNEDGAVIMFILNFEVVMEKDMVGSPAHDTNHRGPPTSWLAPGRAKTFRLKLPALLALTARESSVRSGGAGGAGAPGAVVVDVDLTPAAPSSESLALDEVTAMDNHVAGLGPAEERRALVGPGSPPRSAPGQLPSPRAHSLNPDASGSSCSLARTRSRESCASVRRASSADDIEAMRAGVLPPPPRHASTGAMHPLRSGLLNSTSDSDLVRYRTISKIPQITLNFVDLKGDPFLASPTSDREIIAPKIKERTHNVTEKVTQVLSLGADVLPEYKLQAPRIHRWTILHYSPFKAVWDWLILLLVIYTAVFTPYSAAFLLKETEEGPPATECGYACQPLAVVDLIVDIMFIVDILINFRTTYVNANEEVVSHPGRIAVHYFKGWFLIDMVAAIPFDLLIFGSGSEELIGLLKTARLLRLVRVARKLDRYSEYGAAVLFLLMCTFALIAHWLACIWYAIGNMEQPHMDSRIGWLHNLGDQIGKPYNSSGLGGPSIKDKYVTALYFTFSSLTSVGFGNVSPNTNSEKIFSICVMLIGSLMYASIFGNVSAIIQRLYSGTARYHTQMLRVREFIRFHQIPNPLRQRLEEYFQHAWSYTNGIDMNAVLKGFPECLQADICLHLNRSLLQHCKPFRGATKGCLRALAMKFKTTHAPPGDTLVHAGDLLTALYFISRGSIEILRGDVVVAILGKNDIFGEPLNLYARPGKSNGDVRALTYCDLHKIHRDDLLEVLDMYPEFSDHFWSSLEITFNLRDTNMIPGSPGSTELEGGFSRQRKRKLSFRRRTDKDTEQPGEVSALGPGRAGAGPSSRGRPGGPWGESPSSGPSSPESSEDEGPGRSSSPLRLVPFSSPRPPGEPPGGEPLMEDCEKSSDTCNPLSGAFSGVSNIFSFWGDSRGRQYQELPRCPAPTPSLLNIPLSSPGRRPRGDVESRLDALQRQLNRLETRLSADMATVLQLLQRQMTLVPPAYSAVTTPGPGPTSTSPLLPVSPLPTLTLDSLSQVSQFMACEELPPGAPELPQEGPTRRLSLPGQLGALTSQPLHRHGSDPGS

CN1CCN(CC(=O)Nc2ccc(Nc3nccc(Oc4ccc(NC(=O)C5(C(=O)Nc6ccc(F)cc6)CC5)cc4)n3)cc2)CC1 [Compound 18c]
ED50 apoptosis (TUNEL-positive cells) [1]: 10.07 µM
Inhibition of HCT116 cell migration vs control [2]: inhibited cell migration; also recorded: significantly inhibited
microsomal CLint at 1 μM ([3]; read-out: CL Human): 60 µL/min/mg
half-life at 1 μM ([3]; read-out: T1/2 Human): 53.1 min
IC50 ([4]; Homo sapiens, HCT-116, 72 h, read-out: IC50 antiproliferative HCT116): 4.95 µM
Antiproliferative activity against HCT116, times higher than cabozantinib [4, 9]: 1.6 times
IC50 ([5]; Homo sapiens, HepG2, 72 h, read-out: IC50 antiproliferative HepG2): 6.63 µM
Antiproliferative activity against HepG2, times lesser than cabozantinib [5, 9]: 3.8 times
IC50 [6]: > 40 µM
IC50 [7]: 0.0185 ± 0.0023 µM
IC50 ([8]; Homo sapiens, MDA-MB-231, 72 h, read-out: IC50 antiproliferative MDA-MB0231): 8.9 µM
Antiproliferative activity against MDA-MB-231, times higher than cabozantinib [8, 9]: 3.3 times
